Tests used:
Assay type in all cases: in vivo
[1] = system: bentgrass (Agrostis palustris); test: Test F pre/postemergence
Text: (§1) Seeds or nutlets of plant species selected from (turf) bermudagrass (Cynodon dactylon), Kentucky bluegrass (Poa pratensis), bentgrass (Agrostis palustris), hard fescue (Festuca ovina), large crabgrass (Digitaria sanguinalis), goosegrass (Eleusine indica), dallisgrass (Paspalum dilatatum), annual bluegrass (Poa annua), common chickweed (Stellaria media), dandelion (Taraxacum officinale), white clover (Trifolium repens), and yellow nutsedge (Cyperus esculentus) were planted and treated preemergence with the test chemical formulated in a non-phytotoxic solvent mixture which included a surfactant.
(§2) At the same time, plants selected from these crop and weed species were treated with postemergence applications of the test chemical formulated in the same manner. Plants ranged in height from 2 to 18 cm (1- to 4-leaf stage) for postemergence treatments. Treated plants and controls were maintained in a greenhouse for 12 to 14 days, after which time all species were compared to controls and visually evaluated. Plant response ratings, summarized in Table F, are based on a scale of 0 to 100 where 0 is no effect and 100 is complete control. A dash (-) response means no test result.

[2] = system: hard fescue (Festuca ovina); test: Test F pre/postemergence
Text: as §1, §2

[3] = system: large crabgrass (Digitaria sanguinalis); test: Test F pre/postemergence
Text: as §1, §2

[4] = system: barnyardgrass (ECHCG; Echinochloa crus-galli); test: Test J mixtures of compound 58 with azimsulfuron, flooded paddy; settings: 21 days, scale 0-100
Text: (§3) This test evaluated the effect of mixtures of compound 58 with azimsulfuron on several plant species. Three plastic pots (ca. 16-cm diameter) per rate were partially filled with sterilized Tama silt loam soil comprising a 35:50:15 ratio of sand, silt and clay and 2.6% organic matter. Separate plantings for each of the three pots were as follows. Seeds from the U.S. of ducksalad (HETLI; Heteranthera limosa), smallflower umbrella sedge (CYPDI; Cyperus difformis) and purple redstem (AMMCO; Ammannia coccinea), were planted into one 16-cm pot for each rate. Seeds from the U.S. of bearded sprangletop (LEFUF; Leptochloa fusca ssp. fascicularis), one stand of 9 or 10 water-seeded rice seedlings (ORYSW; Oryza sativa cv. ‘Japonica-M202’), and one stand of 6 transplanted rice seedlings (ORYSP; Oryza sativa cv. ‘Japonica-M202’) were planted into one 16-cm pot for each rate. Seeds from the U.S. of barnyardgrass (ECHCG; Echinochloa crus-galli), late watergrass (ECOR2; Echinochloa oryzicola), early watergrass (ECHOR; Echinochloa oryzoides) and junglerice (ECHCO; Echinochloa colona) were planted into one 16-cm pot for each rate. Plantings were sequential so that crop and weed species were at the 2.0 to 2.5-leaf stage at time of treatment.
(§4) Potted plants were grown in a greenhouse with day/night temperature settings of 29.5/26.7° C., and supplemental balanced lighting was provided to maintain a 16-hour photoperiod. Test pots were maintained in the greenhouse until test completion.
(§5) At time of treatment, test pots were flooded to 3 cm above the soil surface and then treated by application directly to the paddy water of test compounds formulated in a non-phytotoxic solvent mixture which included a surfactant. The pots were maintained at the 3-cm water depth for the duration of the test. Treatments consisted of compound 58 and azimsulfuron alone and in combination. Effects of treatments on rice and weeds were visually evaluated by comparison to untreated controls after 21 days. Plant response ratings were calculated as the means of the three replicates and are summarized in Table J. The ratings are based on a scale of 0 to 100 where 0 is no effect and 100 is complete control. A dash (-) response means no test result. Colby's Equation was used to determine the herbicidal effects expected from the mixtures.

[5] = system: bearded sprangletop (LEFUF; Leptochloa fusca ssp. fascicularis); test: as above; settings: 21 days, scale 0-100
Text: as §3, §4, §5

[6] = system: ducksalad (HETLI; Heteranthera limosa); test: as above; settings: 21 days, scale 0-100
Text: as §3, §4, §5

[7] = system: early watergrass (ECHOR; Echinochloa oryzoides); test: as above; settings: 21 days, scale 0-100
Text: as §3, §4, §5

[8] = system: junglerice (ECHCO; Echinochloa colona); test: as above; settings: 21 days, scale 0-100
Text: as §3, §4, §5

[9] = system: late watergrass (ECOR2; Echinochloa oryzicola); test: as above; settings: 21 days, scale 0-100
Text: as §3, §4, §5

[10] = system: purple redstem (AMMCO; Ammannia coccinea); test: as above; settings: 21 days, scale 0-100
Text: as §3, §4, §5

[11] = system: smallflower umbrella sedge (CYPDI; Cyperus difformis); test: as above; settings: 21 days, scale 0-100
Text: as §3, §4, §5

[12] = system: transplanted rice seedlings (ORYSP; Oryza sativa cv. ‘Japonica-M202’); test: as above; settings: 21 days, scale 0-100
Text: as §3, §4, §5

[13] = system: water-seeded rice seedlings (ORYSW; Oryza sativa cv. ‘Japonica-M202’); test: as above; settings: 21 days, scale 0-100
Text: as §3, §4, §5

**Q.** Which results are given for CCOC(=O)c1nc(C2CC2)nc(N)c1Br [Compound 1, ethyl 6-amino-5-bromo-2-cyclopropyl-4-pyrimidinecarboxylate]?
**A.** Plant response rating (0 to 100 scale) ([1]; Postemergence, 31 g ai/ha): 0; Plant response rating (0 to 100 scale) ([1]; Postemergence, 62 g ai/ha): 30; Plant response rating (0 to 100 scale) ([1]; Postemergence, 125 g ai/ha): 50; Plant response rating (0 to 100 scale) ([1]; Postemergence, 250 g ai/ha): 50; Plant response rating (0 to 100 scale) ([1]; Postemergence, 500 g ai/ha): 70; Plant response rating (0 to 100 scale) ([1]; Preemergence, 31 g ai/ha): 50; Plant response rating (0 to 100 scale) ([1]; Preemergence, 62 g ai/ha): 60; Plant response rating (0 to 100 scale) ([1]; Preemergence, 125 g ai/ha): 60; Plant response rating (0 to 100 scale) ([1]; Preemergence, 250 g ai/ha): 90; Plant response rating (0 to 100 scale) ([1]; Preemergence, 500 g ai/ha): 100; Plant response rating (0 to 100 scale) ([2]; Postemergence, 31 g ai/ha): 0; Plant response rating (0 to 100 scale) ([2]; Postemergence, 62 g ai/ha): 0; Plant response rating (0 to 100 scale) ([2]; Postemergence, 125 g ai/ha): 0; Plant response rating (0 to 100 scale) ([2]; Postemergence, 250 g ai/ha): 0; Plant response rating (0 to 100 scale) ([2]; Postemergence, 500 g ai/ha): 0; Plant response rating (0 to 100 scale) ([2]; Preemergence, 31 g ai/ha): 50; Plant response rating (0 to 100 scale) ([2]; Preemergence, 62 g ai/ha): 60; Plant response rating (0 to 100 scale) ([2]; Preemergence, 125 g ai/ha): 60; Plant response rating (0 to 100 scale) ([2]; Preemergence, 250 g ai/ha): 60; Plant response rating (0 to 100 scale) ([2]; Preemergence, 500 g ai/ha): 90; Plant response rating (0 to 100 scale) ([3]; Postemergence, 31 g ai/ha): 0; Plant response rating (0 to 100 scale) ([3]; Postemergence, 62 g ai/ha): 45; Plant response rating (0 to 100 scale) ([3]; Postemergence, 125 g ai/ha): 70; Plant response rating (0 to 100 scale) ([3]; Postemergence, 250 g ai/ha): 75; Plant response rating (0 to 100 scale) ([3]; Postemergence, 500 g ai/ha): 90; Plant response rating (0 to 100 scale) ([3]; Preemergence, 31 g ai/ha): 15; Plant response rating (0 to 100 scale) ([3]; Preemergence, 62 g ai/ha): 40; Plant response rating (0 to 100 scale) ([3]; Preemergence, 125 g ai/ha): 85; Plant response rating (0 to 100 scale) ([3]; Preemergence, 250 g ai/ha): 95; Plant response rating (0 to 100 scale) ([3]; Preemergence, 500 g ai/ha): 100

**Q.** COC(=O)c1nc(-c2ccc(Cl)cc2)nc(N)c1Cl [Compound 58, methyl 6-amino-5-chloro-2-(4-chlorophenyl)-4-pyrimidinecarboxylate] was tested. Which “ECHCG Obsd.” value ([4]; Compound 58 16 g a.i./ha alone) did it give?
**A.** Its value is 0.

**Q.** What about the “ECHCG Obsd.” value ([4]; Compound 58 32 g a.i./ha alone) of the same compound?
**A.** Its value is 0.

**Q.** What about the “ECHCG Obsd.” value ([4]; Compound 58 64 g a.i./ha alone) of the same compound?
**A.** The value was 0.

**Q.** And the “LEFUF Obsd.” value ([5]; Compound 58 16 g a.i./ha alone)?
**A.** Its value is 0.

**Q.** What about the “LEFUF Obsd.” value ([5]; Compound 58 32 g a.i./ha alone) of the same compound?
**A.** Its value is 0.

**Q.** And the “LEFUF Obsd.” value ([5]; Compound 58 64 g a.i./ha alone)?
**A.** The value was 20.

**Q.** What about the “HETLI Obsd.” value ([6]; Cmpd 58 16 g a.i./ha alone) of the same compound?
**A.** The value was 100.

**Q.** What about the “HETLI Obsd.” value ([6]; Cmpd 58 32 g a.i./ha alone) of the same compound?
**A.** The value was 100.

**Q.** And the “HETLI Obsd.” value ([6]; Cmpd 58 64 g a.i./ha alone)?
**A.** The value was 100.

**Q.** What about the “ECHOR Obsd.” value ([7]; Compound 58 16 g a.i./ha alone) of the same compound?
**A.** Its value is 0.

**Q.** What about the “ECHOR Obsd.” value ([7]; Compound 58 32 g a.i./ha alone) of the same compound?
**A.** Its value is 0.

**Q.** And the “ECHOR Obsd.” value ([7]; Compound 58 64 g a.i./ha alone)?
**A.** The value was 0.

**Q.** And the “ECHCO Obsd.” value ([8]; Compound 58 16 g a.i./ha alone)?
**A.** The value was 0.

**Q.** And the “ECHCO Obsd.” value ([8]; Compound 58 32 g a.i./ha alone)?
**A.** The value was 0.

**Q.** What about the “ECHCO Obsd.” value ([8]; Compound 58 64 g a.i./ha alone) of the same compound?
**A.** The value was 0.

**Q.** What about the “ECOR2 Obsd.” value ([9]; Compound 58 16 g a.i./ha alone) of the same compound?
**A.** The value was 0.

**Q.** And the “ECOR2 Obsd.” value ([9]; Compound 58 32 g a.i./ha alone)?
**A.** The value was 0.

**Q.** And the “ECOR2 Obsd.” value ([9]; Compound 58 64 g a.i./ha alone)?
**A.** Its value is 0.

**Q.** What about the “AMMCO Obsd.” value ([10]; Cmpd 58 16 g a.i./ha alone) of the same compound?
**A.** Its value is 0.

**Q.** And the “AMMCO Obsd.” value ([10]; Cmpd 58 32 g a.i./ha alone)?
**A.** Its value is 30.

**Q.** And the “AMMCO Obsd.” value ([10]; Cmpd 58 64 g a.i./ha alone)?
**A.** Its value is 90.

**Q.** And the “CYPDI Obsd.” value ([11]; Cmpd 58 16 g a.i./ha alone)?
**A.** The value was 100.

**Q.** What about the “CYPDI Obsd.” value ([11]; Cmpd 58 32 g a.i./ha alone) of the same compound?
**A.** Its value is 100.

**Q.** And the “CYPDI Obsd.” value ([11]; Cmpd 58 64 g a.i./ha alone)?
**A.** Its value is 100.

**Q.** And the “ORYSP Obsd.” value ([12]; Cmpd 58 16 g a.i./ha alone)?
**A.** Its value is 0.

**Q.** What about the “ORYSP Obsd.” value ([12]; Cmpd 58 32 g a.i./ha alone) of the same compound?
**A.** The value was 0.

**Q.** And the “ORYSP Obsd.” value ([12]; Cmpd 58 64 g a.i./ha alone)?
**A.** Its value is 0.

**Q.** What about the “ORYSW Obsd.” value ([13]; Cmpd 58 16 g a.i./ha alone) of the same compound?
**A.** The value was 10.

**Q.** And the “ORYSW Obsd.” value ([13]; Cmpd 58 32 g a.i./ha alone)?
**A.** The value was 10.

**Q.** And the “ORYSW Obsd.” value ([13]; Cmpd 58 64 g a.i./ha alone)?
**A.** The value was 20.

Source: patent US8802597B2, “Herbicidal pyrimidines” (E I du Pont de Nemours and Company, priority 2003, dated 2014)
